The values that follow are results of earlier work, collected in US20260355187A1, “LURBINECTEDIN AND DOXORUBICIN COMBINATION” (PHARMA MAR, S.A., priority 2022, published 2026).

In one series the test system is cytochrome P450 CYP3A4. As to conditions: role: substrate.
Series [1] concerns CYP3A4, CYP2D6, and/or P-gp. The note with it: role: substrate; inhibitors e.g. verapamil.
The test system of another series is P-glycoprotein (P-gp). The note with it: role: substrate.
For a further series, the system named is CYP2D6. As to conditions: role: substrate.
Another series relates to other CYP isoenzymes. As to conditions: role: substrate; human microsomes, in vitro.
Series [2] relates to NCI panel of 36 cell lines.
The subject of series [3] is tumour-associates macrophages. The note with it: by inhibiting active transcription.
The next series has as its system CYP3A4. As to conditions: role: substrate; human microsomes, in vitro.
The next series has as its system CYP2E1. As to conditions: role: substrate; human microsomes, in vitro; after CYP3A4.
In series [4] the test system is tumour-derived cell lines. The note with it: in vitro.

SMILES strings stand for the structures. pIC50: −log10 of the molar value. Where a name gives a salt, the structure may show the parent alone. Some results are limits rather than exact numbers.

Regarding `COc1cccc2c1C(=O)c1c(O)c3c(c(O)c1C2=O)C[C@@](O)(C(=O)CO)C[C@@H]3O[C@H]1C[C@H](N)[C@H](O)[C@H](C)O1` [doxorubicin, 5,12-Naphthacenedione, 10-[(3-amino-2,3,6-trideoxy-α-L-lyxo-hexopyranosyl)oxy]-7,8,9,10tetrahydro-6,8,11-trihydroxy-8-(hydroxylacetyl)-1-methoxy-, hydrochloride (8S-cis)], the “Substrate of CYP3A4” value in the series with cytochrome P450 CYP3A4 is “major substrate”. Also, the “Clinical interaction with inhibitors of CYP3A4, CYP2D6, and/or P-gp” value in series [1] is “increased concentration and clinical effect of doxorubicin”. For the same molecule, in the series on P-glycoprotein (P-gp), the “Substrate of P-glycoprotein (P-gp)” value is listed as “major substrate”. In addition, the “Substrate of CYP2D6” value with CYP2D6 is “major substrate”.

Usually pIC50 stands for the negative decadic logarithm of the IC50, by convention in mol/L. Take `COc1ccc2[nH]c3c(c2c1)CCN[C@]31CS[C@@H]2c3c(OC(C)=O)c(C)c4c(c3[C@H](COC1=O)N1[C@@H]2[C@H]2c3c(cc(C)c(OC)c3O)C[C@@H]([C@@H]1O)N2C)OCO4` [lurbinectedin]: the “Estimated contribution of the other CYP isoenzymes to metabolism” value in the series on other CYP isoenzymes is “negligible”. Moreover, the COMPARE analysis result in series [2] (against other 98 standard anticancer agents) is on record as “negative”. The “COMPARE correlation with trabectedin (S-rank)” value in series [2] (versus trabectedin) is reported as > 0.8. For the same molecule, the “Cytokine production in tumour-associated macrophages” value in series [3] was “downregulates IL-6, IL-8, CCL2, and VEGF”. Further, in the series with CYP3A4, the “Contribution of CYP3A4 to metabolism” value is reported as “major CYP isoform involved in the metabolism”. The “Contribution of CYP2E1 to metabolism” value in the series on CYP2E1 is recorded as “followed by CYP2E1”. Further, the “half maximal inhibitory concentration (IC50), range in words” value in [4] (broad selection of tumour-derived cell lines) is given as “low to very low nanomolar range”. In [4] (median over tumour-derived cell lines), the pIC50 is ~10.00.
